Assay results reported in patent US20230143604A1, “QW DOSING OF GIP RECEPTOR AGONIST PEPTIDE COMPOUNDS AND USES THEREOF” (TAKEDA PHARMACEUTICAL COMPANY LIMITED, priority 2020, published 2023).
Starred links: 1 amine or outer side, 2 acyl side, 3 side chain; linkers in the order of their positions; H or OH if unused. Positions of bridges follow the written chain, without caps; N, C: chain ends. Non-standard residues stand in square brackets, D forms with d. Residues, ends and D or L forms follow the SMILES beside them. Groups on a side chain read outwards from the residue. Chains are numbered I, II in the order given. *: point of attachment. C18 diacid = O=C(O)CCCCCCCCCCCCCCCCC(=O)*; C17 diacid = O=C(O)CCCCCCCCCCCCCCCC(=O)*; γGlu = O=C(O)[C@H](CCC(=O)[*:2])N[*:1]; NMeY = CN[C@@H](Cc1ccc(O)cc1)C(=O)O; AEEA = NCCOCCOCC(=O)O; Aib = CC(C)(N)C(=O)O

Experiment: physchem
Procedure, shortened: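 3 mg of peptide treated with 100 μL portions of 200 mM phosphate buffer pH 7.4, sonicating/vortexing up to 1 min, with further buffer added until fully dissolved. Solubility then quantified by HPLC.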

[1] = pH 7.4, aqueous buffer, pH 7.4 Phosphate Buffer - Solubility, 200 mM Phosphate buffer pH 7.4
[2] = pH 7.4, solubility in phosphate buffer at pH 7.4, 200 mM phosphate buffer pH 7.4

SMILES | solubility (pH 7.4) [mg/mL] | solubility (pH 7.4, aqueous buffer) [mg/mL] | solubility [1] [mg/mL] | solubility [2] [mg/mL]
CC[C@H](C)[C@H](NC(=O)[C@H](CO)NC(=O)[C@H](Cc1ccc(O)cc1)NC(=O)[C@H](CC(=O)O)NC(=O)[C@H](CO)NC(=O)[C@@H](NC(=O)[C@H](Cc1ccccc1)NC(=O)[C@@H](NC(=O)CNC(=O)[C@H](CCC(=O)O)NC(=O)C(C)(C)NC(=O)[C@@H](N)Cc1ccc(O)cc1)[C@@H](C)O)[C@@H](C)CC)C(=O)N[C@@H](C)C(=O)N[C@@H](CC(C)C)C(=O)N[C@@H](CC(=O)O)C(=O)N[C@@H](CCCCN)C(=O)N[C@@H](C)C(=O)N[C@@H](C)C(=O)N[C@@H](CCC(N)=O)C(=O)NC(C)(C)C(=O)N[C@@H](CCCCNC(=O)COCCOCCNC(=O)COCCOCCNC(=O)CC[C@H](NC(=O)CC[C@H](NC(=O)CCCCCCCCCCCCCCCC(=O)O)C(=O)O)C(=O)O)C(=O)N[C@@H](Cc1ccccc1)C(=O)N[C@H](C(=O)N[C@@H](CCC(=O)O)C(=O)N[C@@H](Cc1c[nH]c2ccccc12)C(=O)N[C@@H](CC(C)C)C(=O)N[C@@H](CC(C)C)C(=O)N[C@@H](C)C(=O)N[C@@H](CCC(N)=O)C(=O)N[C@@H](CCCNC(=N)N)C(=O)NCC(=O)O)C(C)C [Compound 133] (H-Y[Aib]EGTFISDYSIALDKAAQ[Aib]K([AEEA-AEEA-γGlu-γGlu-C17 diacid])FVEWLLAQRG-OH) | ≥ 15 | ≥ 30 |  | 
CC[C@H](C)[C@H](NC(=O)[C@H](CCCCN)NC(=O)[C@H](CC(=O)O)NC(=O)[C@H](CC(C)C)NC(=O)[C@H](C)NC(=O)[C@@H](NC(=O)[C@H](CO)NC(=O)[C@H](Cc1ccc(O)cc1)NC(=O)[C@H](CC(=O)O)NC(=O)[C@H](CO)NC(=O)[C@@H](NC(=O)[C@H](Cc1ccccc1)NC(=O)[C@@H](NC(=O)CNC(=O)[C@H](CCC(=O)O)NC(=O)C(C)(C)NC(=O)[C@@H](N)Cc1ccc(O)cc1)[C@@H](C)O)[C@@H](C)CC)[C@@H](C)CC)C(=O)N[C@@H](C)C(=O)N[C@@H](CCC(N)=O)C(=O)N[C@@H](CCC(N)=O)C(=O)N[C@@H](CCCCNC(=O)COCCOCCNC(=O)COCCOCCNC(=O)CC[C@H](NC(=O)CC[C@H](NC(=O)CCCCCCCCCCCCCCCC(=O)O)C(=O)O)C(=O)O)C(=O)N[C@@H](Cc1ccccc1)C(=O)N[C@H](C(=O)N[C@@H](CCC(=O)O)C(=O)N[C@@H](Cc1c[nH]c2ccccc12)C(=O)N[C@@H](CC(C)C)C(=O)N[C@@H](CC(C)C)C(=O)N[C@@H](C)C(=O)N[C@@H](CCC(N)=O)C(=O)N[C@@H](CCCNC(=N)N)C(=O)N1CCC[C@H]1C(=O)N[C@@H](CO)C(=O)N[C@@H](CO)C(=O)NCC(=O)N[C@@H](C)C(=O)N1CCC[C@H]1C(=O)N1CCC[C@H]1C(=O)N1CCC[C@H]1C(=O)N[C@@H](CO)C(=O)O)C(C)C [Compound 134] (H-Y[Aib]EGTFISDYSIALDKIAQQK([AEEA-AEEA-γGlu-γGlu-C17 diacid])FVEWLLAQRPSSGAPPPS-OH) |  |  | ≥ 30 | ≥ 15
CC[C@H](C)[C@H](NC(=O)[C@H](CCCCN)NC(=O)[C@H](CC(=O)O)NC(=O)[C@H](CC(C)C)NC(=O)[C@H](C)NC(=O)[C@@H](NC(=O)[C@H](CO)NC(=O)[C@H](Cc1ccc(O)cc1)NC(=O)[C@H](CC(=O)O)NC(=O)[C@H](CO)NC(=O)[C@@H](NC(=O)[C@H](Cc1ccccc1)NC(=O)[C@@H](NC(=O)CNC(=O)[C@H](CCC(=O)O)NC(=O)C(C)(C)NC(=O)[C@@H](N)Cc1ccc(O)cc1)[C@@H](C)O)[C@@H](C)CC)[C@@H](C)CC)C(=O)N[C@@H](C)C(=O)N[C@@H](CCC(N)=O)C(=O)N[C@@H](CCCNC(=N)N)C(=O)N[C@@H](CCCCNC(=O)COCCOCCNC(=O)COCCOCCNC(=O)CC[C@H](NC(=O)CC[C@H](NC(=O)CCCCCCCCCCCCCCCC(=O)O)C(=O)O)C(=O)O)C(=O)N[C@@H](Cc1ccccc1)C(=O)N[C@H](C(=O)N[C@@H](CCC(=O)O)C(=O)N[C@@H](Cc1c[nH]c2ccccc12)C(=O)N[C@@H](CC(C)C)C(=O)N[C@@H](CC(C)C)C(=O)N[C@@H](C)C(=O)N[C@@H](CCC(N)=O)C(=O)N[C@@H](CCCNC(=N)N)C(=O)N1CCC[C@H]1C(=O)N[C@@H](CO)C(=O)N[C@@H](CO)C(=O)NCC(=O)N[C@@H](C)C(=O)N1CCC[C@H]1C(=O)N1CCC[C@H]1C(=O)N1CCC[C@H]1C(=O)N[C@@H](CO)C(=O)O)C(C)C [Compound 135] (H-Y[Aib]EGTFISDYSIALDKIAQRK([AEEA-AEEA-γGlu-γGlu-C17 diacid])FVEWLLAQRPSSGAPPPS-OH) |  |  | ≥ 30 | ≥ 15
CC[C@H](C)[C@H](NC(=O)[C@H](CO)NC(=O)[C@H](Cc1ccc(O)cc1)NC(=O)[C@H](CC(=O)O)NC(=O)[C@H](CO)NC(=O)[C@@H](NC(=O)[C@H](Cc1ccccc1)NC(=O)[C@@H](NC(=O)CNC(=O)[C@H](CCC(=O)O)NC(=O)C(C)(C)NC(=O)[C@H](Cc1ccc(O)cc1)NC)[C@@H](C)O)[C@@H](C)CC)C(=O)N[C@@H](C)C(=O)N[C@@H](CC(C)C)C(=O)N[C@@H](CC(=O)O)C(=O)N[C@@H](CCCNC(=N)N)C(=O)NC(C)(C)C(=O)N[C@@H](CCCCNC(=O)CNC(=O)CNC(=O)[C@@H]1CCCN1C(=O)[C@H](C)NC(=O)[C@@H]1CCCN1C(=O)[C@H](C)NC(=O)[C@@H]1CCCN1C(=O)CC[C@H](NC(=O)CCCCCCCCCCCCCCCCC(=O)O)C(=O)O)C(=O)N[C@@H](CCC(N)=O)C(=O)NC(C)(C)C(=O)N[C@@H](CC(=O)O)C(=O)N[C@@H](Cc1ccccc1)C(=O)N[C@H](C(=O)N[C@@H](CC(N)=O)C(=O)N[C@@H](Cc1c[nH]c2ccccc12)C(=O)N[C@@H](CC(C)C)C(=O)N[C@@H](CC(C)C)C(=O)N[C@@H](C)C(=O)N[C@@H](CCC(N)=O)C(=O)N[C@@H](CO)C(=O)N1CCC[C@H]1C(=O)NCC(=O)O)C(C)C [Compound 136] (I: H-[NMeY][Aib]EGTFISDYSIALDR[Aib]KQ[Aib]DFVNWLLAQSPG-OH / II: {C18 diacid-γGlu}-PAPAPGG; amide I:18-II:C) | ≥ 15 | ≥ 30 |  | 
CC[C@H](C)[C@H](NC(=O)[C@H](CO)NC(=O)[C@H](Cc1ccc(O)cc1)NC(=O)[C@H](CC(=O)O)NC(=O)[C@H](CO)NC(=O)[C@@H](NC(=O)[C@H](Cc1ccccc1)NC(=O)[C@@H](NC(=O)CNC(=O)[C@H](CCC(=O)O)NC(=O)C(C)(C)NC(=O)[C@@H](N)Cc1ccc(O)cc1)[C@@H](C)O)[C@@H](C)CC)C(=O)N[C@@H](C)C(=O)N[C@@H](CC(C)C)C(=O)N[C@@H](CC(=O)O)C(=O)N[C@@H](CCCNC(=N)N)C(=O)NC(C)(C)C(=O)N[C@@H](C)C(=O)N[C@@H](CCC(N)=O)C(=O)NC(C)(C)C(=O)N[C@@H](CCCCNC(=O)COCCOCCNC(=O)COCCOCCNC(=O)CC[C@H](NC(=O)CC[C@H](NC(=O)CCCCCCCCCCCCCCCC(=O)O)C(=O)O)C(=O)O)C(=O)N[C@@H](Cc1ccccc1)C(=O)N[C@H](C(=O)N[C@@H](CC(N)=O)C(=O)N[C@@H](Cc1c[nH]c2ccccc12)C(=O)N[C@@H](CC(C)C)C(=O)N[C@@H](CC(C)C)C(=O)N[C@@H](C)C(=O)N[C@@H](CCC(N)=O)C(=O)N[C@@H](CCCNC(=N)N)C(=O)NCC(=O)O)C(C)C [Compound 140] (H-Y[Aib]EGTFISDYSIALDR[Aib]AQ[Aib]K([AEEA-AEEA-γGlu-γGlu-C17 diacid])FVNWLLAQRG-OH) | ≥ 15 | ≥ 30 |  | 
CC[C@H](C)[C@H](NC(=O)[C@H](Cc1ccccc1)NC(=O)[C@@H](NC(=O)CNC(=O)[C@H](CCC(=O)O)NC(=O)C(C)(C)NC(=O)[C@@H](N)Cc1ccc(O)cc1)[C@@H](C)O)C(=O)N[C@@H](CO)C(=O)N[C@@H](CC(=O)O)C(=O)N[C@@H](Cc1ccc(O)cc1)C(=O)N[C@@H](CO)C(=O)N[C@H](C(=O)NC(C)(C)C(=O)N[C@@H](CC(C)C)C(=O)N[C@@H](CC(=O)O)C(=O)N[C@@H](CCCNC(=N)N)C(=O)NC(C)(C)C(=O)N[C@@H](C)C(=O)N[C@@H](CCC(N)=O)C(=O)NC(C)(C)C(=O)N[C@@H](CCCCNC(=O)COCCOCCNC(=O)COCCOCCNC(=O)CC[C@H](NC(=O)CC[C@H](NC(=O)CCCCCCCCCCCCCCCCC(=O)O)C(=O)O)C(=O)O)C(=O)N[C@@H](Cc1ccccc1)C(=O)N[C@H](C(=O)N[C@@H](CC(N)=O)C(=O)N[C@@H](Cc1c[nH]c2ccccc12)C(=O)N[C@@H](CC(C)C)C(=O)N[C@@H](CC(C)C)C(=O)N[C@@H](C)C(=O)N[C@@H](CCC(N)=O)C(=O)N[C@@H](CCCNC(=N)N)C(=O)NCC(=O)O)C(C)C)[C@@H](C)CC [Compound 141] (H-Y[Aib]EGTFISDYSI[Aib]LDR[Aib]AQ[Aib]K([AEEA-AEEA-γGlu-γGlu-C18 diacid])FVNWLLAQRG-OH) | ≥ 15 | ≥ 30 |  | 
CC[C@H](C)[C@H](NC(=O)[C@H](CCCCN)NC(=O)[C@H](CC(=O)O)NC(=O)[C@H](CC(C)C)NC(=O)[C@H](C)NC(=O)[C@@H](NC(=O)[C@H](CO)NC(=O)[C@H](Cc1ccc(O)cc1)NC(=O)[C@H](CC(=O)O)NC(=O)[C@H](CO)NC(=O)[C@@H](NC(=O)[C@H](Cc1ccccc1)NC(=O)[C@@H](NC(=O)CNC(=O)[C@H](CCC(=O)O)NC(=O)C(C)(C)NC(=O)[C@@H](N)Cc1ccc(O)cc1)[C@@H](C)O)[C@@H](C)CC)[C@@H](C)CC)C(=O)N[C@@H](C)C(=O)N[C@@H](CCC(N)=O)C(=O)N[C@@H](CCC(N)=O)C(=O)N[C@@H](CCCCNC(=O)COCCOCCNC(=O)COCCOCCNC(=O)CC[C@H](NC(=O)CC[C@H](NC(=O)CCCCCCCCCCCCCCCC(=O)O)C(=O)O)C(=O)O)C(=O)N[C@@H](Cc1ccccc1)C(=O)N[C@H](C(=O)N[C@@H](CCC(=O)O)C(=O)N[C@@H](Cc1c[nH]c2ccccc12)C(=O)N[C@@H](CC(C)C)C(=O)N[C@@H](CC(C)C)C(=O)N[C@@H](C)C(=O)N[C@@H](CCC(N)=O)C(=O)N[C@@H](CCCNC(=N)N)C(=O)NCC(=O)O)C(C)C [Compound 142] (H-Y[Aib]EGTFISDYSIALDKIAQQK([AEEA-AEEA-γGlu-γGlu-C17 diacid])FVEWLLAQRG-OH) | ≥ 15 | ≥ 30 |  | 
